Laboratory results: patent publication US5468772A, “Tripterinin compound and method” (Pharmagenesis, Inc., priority 1993, dated 1995)

Experiments:
[1] = tested on: human peripheral blood lymphocytes; experiment: Suppression of human PBL proliferation in vitro ([3H]thymidine incorporation), with or without anti-CD3 (X-35); assay type: cell-based
Procedure: One measure of immunosuppression is suppression of stimulated peripheral blood lymphocyte (PBL) proliferation in vitro. In the assay detailed in Example 3, PBLs were activated in vitro by addition of anti-CD3 monoclonal antibody (X-35 antibody). At the same time, purified tripterinin or vehicle (control) was added to each culture, at selected concentrations. After 72 hours incubation, tritiated thymidine was added to the culture medium, and thymidine incorporation into DNA was assayed, as a measure of DNA synthesis associated with cell proliferation.
The ability of tripterifordin to inhibit anti-CD3 stimulated PBL proliferation was assayed at concentrations of 0, 0.78, 3.13, and 12.5 μg/ml, with the results shown in FIG. 9.
Human peripheral blood lymphocytes were prepared using an established method (Boyum). Human blood buffy coat samples, approximately 25 ml/donor, were obtained from the Stanford University Medical Center Blood Bank. Using sterile technique, the buffy coat samples were gently resuspended in a total volume of 100 ml with the addition of calcium and magnesium free Hank's balanced salt solution (HBSS, obtained from Gibco) at room temperature. A volume of 25 ml of the cell suspension was then layered onto 15 ml of Ficoll-Pacque (Pharmacia LKB Biotechnology, Inc.) in a 50 ml conical centrifuge tube. Tubes were centrifuged in a Beckman GPR tabletop centrifuge (GH-3.7 Rotor) at 400×g for 30 minutes at 15° C.
Following centrifugation, the PBL suspensions at the interfaces were transferred to new 50 ml tubes using a transfer pipette, and the PBL samples were resuspended in a total volume of 45 ml HBSS and centrifuged at 354×g for 10 minutes at 15° C. Supernatants were discarded. PBL's were resuspended in 10 ml HBSS, combined to make a total of 45 ml HBSS, and centrifuged at 265×g for 10 minutes at 15° C. The cell pellets were suspended in 10 ml of X-Vivo tissue culture medium (Bio Whittaker) and counted using a hemocytometer. Tissue culture medium was then added to achieve a final cell concentration of 1× 10^6 cells/ml. Additional dilutions were carried out as required for each assay.
Assays were carried out in 96 well sterile tissue culture plates (Costar 3790 and Costar 3595). A volume of 150 μl of X-Vivo medium or sterile distilled water was added to the outer wells of the plate to prevent evaporation of medium within the experimental wells. PBL's from 2 different donors were used in parallel in all experiments. A volume of 100 μl PBL suspension was added to each well using a multichannel pipette. Plates were incubated in an atmosphere of 93% air/7% CO2 in a tissue culture incubator at 37° C. X-35 (AMAC #0178), an anti CD-3 surface antigen antibody, was used at 5 ng/ml to stimulate PBL proliferation.
Tripterinin or tripterifordin was dissolved in ethanol (10 mg/ml) and then diluted in sterile X-Vivo tissue culture medium to obtain the final concentrations required for each experiment.
Four hours prior to the conclusion of incubation, 50 μl of X-Vivo tissue culture medium containing 8 μCi/ml [^3 H]Thymidine (Amersham, 49 Ci/mmol) was added to each tissue culture well. After 72 hours total incubation time, the cells were removed from the tissue culture wells and applied to filter paper using a cell harvester (Brandel Model MB-24). The filter paper was dried for one hour under a heat lamp and then cut into 1 cm discs. Each sample was placed in a scintillation vial containing 2 ml of scintillation fluid (Biosafe, Research Products International Corp.). Samples were counted in a Beckman LS 6000SC scintillation counter.

mouse thymocytes = experiment: Inhibition of IL-1 action: IL-1 stimulated mouse thymocyte proliferation in presence of PHA; assay type: cell-based; conditions: tripterifordin 3.13 μg/ml, about 3 μg/ml, tripterinin 0.02 to 1 μg/ml
Procedure: The ability of tripterinin and tripterifordin to suppress the cell-proliferative effect of IL-1 in mouse thymocytes, an index of IL-1 action (O'Gara), was also examined. In this study, mouse thymocytes in culture were stimulated with IL-1 in the presence of phytohemagglutinin (PHA) and increasing concentrations of purified tripterinin or tripterifordin. The cells were cultured for 72 hours, and during the last four hours, incubated with tritiated thymidine. DNA synthesis was assessed by measurement of radiolabeled thymidine incorporation.
Mouse thymocytes were prepared, and the action of IL-1, which stimulates thymocyte proliferation, was measured using standard techniques (O'Gara). Three to six week old C3H/HeN mice were obtained from Simonsen Laboratories, Gilroy, Calif. and sacrificed by CO2 inhalation. Thymi were removed, separated from adherent non-thymic tissue, homogenized in Hank's balanced salt solution (Gibco) using a glass homogenizer, and centrifuged at 180×g for 10 minutes at 15° C. Following an additional wash in HBSS, the thymocytes were resuspended in RPMI 1640 tissue culture medium (Gibco) containing 50 μM 2-mercaptoethanol (Fisher), 2 mM glutamine (Gibco), 1 mM sodium pyruvate, non-essential amino acids, penicillin (100 U/ml) streptomycin (100 μg/ml), 10% heat inactivated fetal bovine serum and Phytohemagglutinin (PHA, Pharmacia, final concentration 10 μg/ml). Cells were cultured in round-bottom 96 well microtiter tissue culture plates, 6×10^5 cells per well in a volume of 100 μl. Tripterinin or tripterifordin was diluted in tissue culture medium and added to the wells in the presence and absence of IL-1 (recombinant human IL-1, R&D Systems catalog #201-LB, 0.1 ng/ml). Total volume was 150 μl per well.
Plates were incubated for 72 hours (95% air/5% CO2, 37° C.). During the last four hours of incubation, [^3 H]-thymidine (Amersham, […]) was added (0.5 μCi per well). Cells were harvested onto Whatman 934-AH glass microfiber filters and counted in a Beckman LS 6000 scintillation counter. Results were expressed as counts per minute per well.

HIV = conditions: cited from earlier work
IL-1 = conditions: RA patients, long term administration; cited from earlier work
TNFα = conditions: RA patients, long term administration; cited from earlier work

| SMILES | inhibition of anti-CD3 stimulated PBL proliferation ([1]; highest concentration tested, 12.5 μg/ml, FIG. 9) | inhibitory effect on PBL proliferation ([1]; stimulated and unstimulated (tripterinin), FIG. 9 (tripterifordin)) | inhibition of IL-1 stimulated thymocyte proliferation (mouse thymocytes) | inhibition of IL-1 stimulated thymocyte proliferation (mouse thymocytes; listed as Tripterifordin) | anti-HIV activity (HIV) | serum level of IL-1 (IL-1) | serum level of TNFα (TNFα) |
| --- | --- | --- | --- | --- | --- | --- | --- |
| C[C@@]1(O)C[C@@]23CC[C@H]4[C@@]5(CCC[C@]4(C)C(=O)OC5)[C@@H]2CC[C@H]1C3 [tripterifordin, reference compound] | failed to significantly inhibit PBL proliferation | little or no inhibitory effect | little or no inhibitory effect | failed to inhibit | anti-HIV principle | – | – |
| O=C(O)c1cc(/N=N/c2ccc(S(=O)(=O)Nc3ccccn3)cc2)ccc1O [sulfasalazine] | – | – | – | – | – | decline | decline |
